# Molecular target: Telomerase reverse transcriptase (Homo sapiens, UniProt O14746)
# Test: Inhibitory activity against Telomerase evaluated by TRAP Assay studies.
# Chain of Telomerase reverse transcriptase (O14746 whole entry): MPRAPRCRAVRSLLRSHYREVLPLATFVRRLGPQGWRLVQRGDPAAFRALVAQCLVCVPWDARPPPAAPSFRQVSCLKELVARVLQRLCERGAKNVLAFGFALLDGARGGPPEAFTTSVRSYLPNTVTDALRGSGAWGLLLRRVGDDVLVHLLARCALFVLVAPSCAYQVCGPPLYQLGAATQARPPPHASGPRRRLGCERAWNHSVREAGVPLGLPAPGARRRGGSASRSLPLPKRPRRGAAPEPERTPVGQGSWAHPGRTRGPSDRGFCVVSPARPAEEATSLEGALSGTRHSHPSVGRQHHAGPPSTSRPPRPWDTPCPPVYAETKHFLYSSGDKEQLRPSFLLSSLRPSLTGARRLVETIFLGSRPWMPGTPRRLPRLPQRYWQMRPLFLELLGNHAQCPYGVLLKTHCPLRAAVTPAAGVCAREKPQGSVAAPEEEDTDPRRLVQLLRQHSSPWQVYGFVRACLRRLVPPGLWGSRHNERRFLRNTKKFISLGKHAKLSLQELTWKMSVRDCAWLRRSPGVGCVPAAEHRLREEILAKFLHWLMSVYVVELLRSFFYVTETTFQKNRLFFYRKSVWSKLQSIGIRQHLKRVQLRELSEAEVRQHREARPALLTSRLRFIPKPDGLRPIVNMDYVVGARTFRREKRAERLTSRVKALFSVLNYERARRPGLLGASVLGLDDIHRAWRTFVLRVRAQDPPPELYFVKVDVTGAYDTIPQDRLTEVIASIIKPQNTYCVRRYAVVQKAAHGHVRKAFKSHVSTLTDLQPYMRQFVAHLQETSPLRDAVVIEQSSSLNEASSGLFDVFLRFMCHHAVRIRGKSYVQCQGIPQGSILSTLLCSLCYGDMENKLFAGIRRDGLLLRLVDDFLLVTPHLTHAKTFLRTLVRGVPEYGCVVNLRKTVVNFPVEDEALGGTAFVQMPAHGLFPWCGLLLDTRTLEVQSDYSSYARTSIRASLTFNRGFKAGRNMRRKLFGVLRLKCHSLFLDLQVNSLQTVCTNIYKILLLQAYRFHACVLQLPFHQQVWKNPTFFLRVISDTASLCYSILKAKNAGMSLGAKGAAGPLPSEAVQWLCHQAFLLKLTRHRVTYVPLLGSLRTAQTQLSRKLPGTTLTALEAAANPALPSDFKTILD
row,Compound,IC50 [µM]
1,CC1(C)CC2CC(C)(CN2CCC(=O)Nc2ccc3c(c2)C(=O)c2ccc(NC(=O)CCN4CC5(C)CC4CC(C)(C)C5)cc2C3=O)C1,> 50
2,O=C(CCN1CCCCCCC1)Nc1ccc2c(c1)C(=O)c1ccc(NC(=O)CCN3CCCCCCC3)cc1C2=O,> 50
3,O=C(CCN1CCCCCC1)Nc1ccc2c(c1)C(=O)c1ccc(NC(=O)CCN3CCCCCC3)cc1C2=O,13
